From publication PMC12295927, “Design, Synthesis, and Testing of 1,2,3-Triazolo-Quinobenzothiazine Hybrids for Cytotoxic and Immunomodulatory Activity” (International Journal of Molecular Sciences, 2025)

Experiments:
[1] = test system: IL6 gene; test: RT-qPCR IL6 gene expression in BEAS-2B; format: cell-based, Human; details: Homo sapiens, 24 h, reference gene RPL41, vs untreated control, read-out: Relative level of expression, IL6 gene
Experimental: (§1) Real-time polymerase chain reaction was performed for the reference gene RPL41 (ribosomal protein L41) and the tested genes: BCL2, AIFM2, MDM2, IL6 and IL8. […] The BEAS-2B line was selected for the experiment. The expression level of selected genes was measured after 24 h of incubation with the tested substances MJ1–MJ20 at a concentration of 100 μM (Table 3).
(§2) The RT-qPCR experiment was performed for the BEAS-2B cell line. In this experiment, the IL6 and IL8 genes were studied and RPL41 was used as a reference gene (Figure 17 and Figure 18).
(§3) Gene expression studies used quantitative RT-qPCR to assess the effect of the tested quinobenzothiazines (MJ1–MJ20) on the expression of apoptosis-related genes (BCL2, AIFM2, MDM2) and pro-inflammatory cytokines (IL6, IL8) (Table 4).
(§4) BEAS-2B and HCT116 cells were seeded in 6-well plates at 2 × 10^5 cells per well and cultured in RPMI-1640 (BEAS-2B) or DMEM (HCT116) medium supplemented with 10% FBS and 1% penicillin/streptomycin at 37 °C, 5% CO2 and 95% humidity. After 24 h of incubation, the tested compounds were added at a concentration of 100 µM. After 24 h, the medium was removed from the cells, washed with PBS solution, 0.5 mL of trypsin was added per well and after 5 min it was neutralized with medium. The obtained cell suspension was centrifuged for 3 min at 2000 rpm, the supernatant was removed, and the obtained pellet was suspended in 400 µL of phenozol. Samples were frozen at −20 °C and stored until further experiment and RNA isolation.
(§5) Total RNA was isolated from cells using the A&A Biotechnology Total RNA Mini kit according to the manufacturer’s protocol. RNA quality and quantity were assessed using a NanoDrop 2000 spectrophotometer at 260/280 nm. Reverse transcription was performed using the protocol (EURx NG dART RT Kit) to obtain cDNA. After incubation, samples were placed in a freezer (−20 °C) and stored until further analysis.
(§6) The experiment was performed according to the protocol (Brilliant III Ultra Fast SYBR® Green QPCR Master Mix, Quick Reference Guide for the Bio-Rad CFX96 Real-Time PCR Detection System). RT-qPCR reaction was performed using specific primers for target genes (BCL2, AIFM2, MDM2, IL6, IL8). Gene expression was normalized to the expression of the reference gene RPL41. Reaction profiles and results were performed using Bio-Rad CFX Maestro 1.1 software from Bio-Rad. Analysis and calculations of the results obtained during RT-qPCR were performed using Microsoft Excel.
(§7) The results were analyzed using the R = 2^−ΔΔCt method, which allows for determining the relative level of gene expression (R) compared to the control. Each experiment was performed in three technical and biological replicates. RT-qPCR allowed for precise assessment of changes in the expression of genes related to the processes of apoptosis and inflammatory response under the influence of quinobenzothiazines, which allowed for identifying their potential mechanisms of action at the molecular level.

[2] = test system: BEAS-2B; test: Alamar Blue cytotoxicity test, BEAS-2B; format: cell-based, Human; details: Homo sapiens, 24 h, 24 h incubation, read-out: IC50 values for BEAS-2B line
Experimental: The cytotoxicity of the tested chemical compounds MJ1–MJ20 was tested using the Alamar Blue test. The experiment was conducted on cell lines BEAS-2B (Figure 7), HCT116 (Figure 8), U2OS (Figure 9), MCF7 (Figure 10), SH-SY5Y (Figure 11), NHDF (Figure 12), and A549 (Figure 13). Cells were seeded in 96-well plates and incubated with the tested compounds for 24 h. The test result is the IC50 parameter, which is a measure of cytotoxic activity expressed by the concentration of the substance that causes the death of half of the analyzed cells compared to the control.
In cytotoxicity studies, the Alamar Blue test was used, which is based on the ability of living cells to reduce the non-fluorescent dye resazurin to fluorescent resorufin, which reflects the metabolic activity of cells. BEAS-2B, NHDF, HCT116, MCF7, A549, SH-SY5Y and U2OS cell lines were cultured under standard conditions, in DMEM medium supplemented with 10% FBS and 1% penicillin/streptomycin, at 37 °C, 5% CO2 and 95% humidity. Cells were seeded in 96-well plates at 1 × 10^4 cells per well and incubated for 24 h. Then, the tested compounds (MJ1–MJ20) were added at different concentrations (from 6.25 µM to 100 µM). The control contained cells untreated with the tested compounds. After 24 h of incubation, 10 µL of Alamar Blue solution was added to each well and incubated for another 2–4 h under the same conditions. The signal was measured spectrophotometrically at wavelengths of 570 nm (for resorufin) and 600 nm (for resazurin) or optionally fluorimetrically, using an excitation maximum of 570 nm and an emission maximum of 585 nm. The results were presented as percentage of cell survival relative to the control, calculating the ratio of absorbance or fluorescence of the sample to the control value. The Alamar Blue assay, due to its sensitivity and non-toxicity, allows for an accurate assessment of metabolic activity and cell survival in response to the tested quinobenzothiazines.

[3] = test system: MDM2 gene; test: RT-qPCR MDM2 gene expression in BEAS-2B; format: cell-based, Human; details: 24 h; for fold induction at 100 µM: Homo sapiens, reference gene RPL41, vs untreated control, read-out: Relative level of expression, MDM2 gene
Experimental: as §1
The RT-qPCR experiment was performed for the BEAS-2B cell line. In this experiment, the MDM2 gene was studied and RPL41 was used as reference gene (Figure 15).
as §3, §4, §5, §6, §7

[4] = test system: AIFM2 gene; test: RT-qPCR AIFM2 gene expression in BEAS-2B; format: cell-based, Human; details: Homo sapiens, 24 h, reference gene RPL41, vs untreated control, read-out: Relative level of expression, AIFM2 gene
Experimental: as §1
The RT-qPCR experiment was performed for the BEAS-2B cell line. In this experiment, the AIFM2 gene was studied and RPL41 was used as reference gene (Figure 16).
as §3, §4, §5, §6, §7

[5] = test system: BCL2 gene; test: RT-qPCR BCL2 gene expression in BEAS-2B; format: cell-based, Human; details: Homo sapiens, 24 h, reference gene RPL41, vs untreated control, read-out: Relative level of expression, BCL2 gene
Experimental: as §1
The RT-qPCR experiment was performed for the BEAS-2B cell line. In this experiment, the BCL2 gene was studied, and RPL41 was used as the reference gene (Figure 14).
as §3, §4, §5, §6, §7

[6] = test system: IL8 gene; test: RT-qPCR IL8 gene expression in BEAS-2B; format: cell-based; details: Homo sapiens, 24 h, reference gene RPL41, vs untreated control, read-out: Relative level of expression, IL8 gene
Experimental: as §1, §2, §3, §4, §5, §6, §7

Structure (SMILES)	fold induction at 100 µM [1]	IC50 [2] [µM]	fold induction at 100 µM [3]	fold induction at 100 µM [4]	fold induction at 100 µM [5]	fold induction at 100 µM [6]	MDM2 expression increase ([3]; 100 μM, compared to control) [fold]
c1ccc(SCn2cc(CN3c4ccccc4Sc4cc5ccccc5nc43)nn2)cc1 [MJ5, 6-((1-((Phenylthio)methyl)-1H-1,2,3-triazol-4-yl)methyl)-quino[3,2-b]benzo[1,4]thiazine]	2.7	73	4.8	1.9	5	0.1	
N#Cc1ccc(Cn2cc(CN3c4ccccc4Sc4cc5ccccc5nc43)nn2)cc1 [MJ4, 4-((4-((Quino[3,2-b]benzo[1,4]thiazin-6-yl)methyl)-1H-1,2,3-triazol-1-yl)methyl)benzonitrile]	3.1	64.5	4.3	1.4	9.3	0.8	
CSc1ccc2c(c1)Sc1cc3ccccc3nc1N2Cc1cn(Cc2ccc(F)cc2)nn1 [MJ17, 9-Methylthio-6-((1-(4-fluorobenzyl)-1H-1,2,3-triazol-4-yl)methyl)-quino[3,2-b]-benzo[1,4]thiazine]	28	72.6	11	2.5	33.9	5.7	11.0
Clc1ccc2c(c1)Sc1cc3ccccc3nc1N2Cc1cn(Cc2ccccc2)nn1 [MJ11, 9-Chloro-6-[(1-benzyl-1H-1,2,3-triazol-4-yl)-methyl]-quino[3,2-b]benzo[1,4]thiazine]	5.7	88.1	4.6	0.8	49.9	1.4	
N#Cc1ccc(Cn2cc(CN3c4ccc(Cl)cc4Sc4cc5ccccc5nc43)nn2)cc1 [MJ14, 4-((4-((9-Chloroquino[3,2-b]benzo[1,4]thiazin-6-yl)methyl)-1H-1,2,3-triazol-1-yl)methyl)-benzonitrile]	8.8	78.4	3.7	1.2	43	3.6	
Fc1ccc2c(c1)Sc1cc3ccccc3nc1N2Cc1cn(Cc2ccccc2)nn1 [MJ6, 9-Fluoro-6-[(1-benzyl-1H-1,2,3-triazol-4-yl)-methyl]-quino[3,2-b]benzo[1,4]thiazine]	3.2	72.9	5.1	1.8	8.5	0.1	
c1ccc(Cn2cc(CN3c4ccccc4Sc4cc5ccccc5nc43)nn2)cc1 [MJ1]	3	73.8	5.4	2.4	23	0.3	
